Results on 8 compounds are retold here after patent US20050032124A1, “Identification of genotype-selective agents for treating Huntington's disease” (priority 2003, published 2005).

Assay [1] deals with BJ-TERT/p53DD/CDK4^R24C/D1/ST/RAS^V12 cells. The experiment in a line: Calcein AM viability assay, dilution-series retest. The format is cell-based. Conditions: Homo sapiens, 48 h, read-out: IC50, BJ-TERT/p53DD/CDK4^R24C/cyclineD1/ST/Ras^V12. The text has this: These engineered tumorigenic cells make use of dominantly acting viral oncoproteins such as LT, ST, E6 and E7. These viral proteins are possibly involved in cell transformation in specific forms of cancer, namely simian virus 40-induced malignant mesothelioma (Testa and Giordano, 2001, Semin Cancer Biol 11, 31-8) and human papillomavirus-induced cervical carcinoma (Bosch et al., 2002, J Clin Pathol 55, 244-65), and have been used to disrupt p53 and pRB function to transform cells in vitro and in vivo (Elenbaas et al., 2001, Genes Dev 15, 50-65; Jorcyk et al., 1998, Prostate 34, 10-22; Perez-Stable et al., 1997, Cancer Res 57, 900-6; Rich et al., 2001, Cancer Res 61, 3556-60; Sandmoller et al., 1995, Cell Growth Differ 6, 97-103). Applicants made use of these two different methods for inactivating cellular proteins, (they tested the effects of both LT and E6/E7-based inactivation of pRB and p53) in order to control for idiosyncratic effects that might be observed with a specific viral protein. The selectivity of these compounds was also confirmed in a cell line expressing dominant negative inhibitors of p53 and pRB that are not derived from viral elements. This cell line expresses (i) a truncated form of p53 (p53DD) that disrupts tetramerization of endogenous p53, (ii) a CDK4^R24C mutant resistant to inhibition by p16^INK4A and p15^INK4B (the major negative regulators of CDK4) and (iii) cyclin D1. The effects of the nine genotype-selective compounds were tested at a range of concentrations in these cells, which are referred to as BJ-TERT/ p53DD/CDK4^R24C/D1/ST/RAS^V12 cells (Table 1). […] However, the overall results of the analysis were unchanged by the use of non-viral proteins in this cell line (Table 1).
(§1) Calcein acetoxylmethyl ester (AM) is a cell membrane-permeable, non-fluorescent compound that is cleaved by intracellular esterases to form the anionic, cell-impermeable, fluorescent compound calcein. Viable cells are stained by calcein because of the presence of intracellular esterases and because the intact plasma membrane prevents fluorescent calcein from leaking out of cells (Wang et al., 1993, supra). Cells were seeded in 384-well plates using a Zymark Sciclone ALH, treated with each compound in triplicate at 4 μg/mL in the primary screen for two days, washed with phosphate-buffered saline on a Packard Minitrak with a 384-well washer and incubated for four hours with 0.7 μg/mL calcein (Molecular Probes). Total fluorescence intensity in each well was recorded on a Packard Fusion platereader, and converted to a percent inhibition of signal by subtracting the instrument background and dividing by the average signal obtained when cells were not treated with any compound.
(§2) Replica daughter plates were prepared with a Zymark Sciclone ALH and integrated Twister II by diluting stock plates 50 fold in medium lacking serum and pen/strep to obtain a compound concentration in daughter plates of 80 μg/ml with 2% DMSO. Assay plates were prepared by seeding cells in black, clear bottom 384-well plates in columns 1-23 (6000 cells/well in 57 μl) using a syringe bulk dispenser. Columns 3-22 were treated with compounds from a daughter library plate by transferring 3 μl from the daughter library plate using 384-position fixed cannula array. The final compound concentrations in assay plates were thus 4 μg/ml. The assay plates were incubated for 48 hours at 37° C. in humidified incubator containing 5% CO2. Plate processing for the calcein AM viability assay was performed using an integrated Minitrak/Sidetrak robotic system from Packard Bioscience (Perkin Elmer). Assay plates were washed with phosphate buffered saline, and 20 μl of calcein AM (0.7 μg/ml) per well was added. Plates were incubated at room temperature for 4 hours. Fluorescence intensity was determined using a Fusion platereader with filters centered on an excitation of 485 nm and an emission of 535 nm.
Compounds to be retested were purchased from manufacturers. […]

The test system of assay [2] is BJ-TERT/LT/ST/RAS^V12 tumorigenic cells. The experiment in a line: Calcein AM viability assay, dilution-series retest. The format is cell-based, human. Particulars: for IC50: Homo sapiens, 48 h, read-out: IC50, BJ-TERT/LT/ST/Ras^V12; for Tumor Selectivity: IC50 in primary BJ cells divided by IC50 in BJ-TERT/LT/ST/RAS^V12 tumorigenic cells. Here is the method: Described here is work carried out to identify compounds with increased potency or activity in the presence of hTERT, LT, ST, E6, E7 or RAS^V12. […] The primary screen tested (in quadruplicate) the effect of treating tumorigenic BJ-TERT/LT/ST/RAS^V12 engineered tumorigenic cells with each compound for 48 hours at a concentration of 4 μg/mL, corresponding to 10 μM for a compound with a molecular weight of 400, which is the approximate median molecular weight of the libraries. Cell viability was measured using the dye calcein acetoxymethyl ester (calcein AM) (Wang et al., 1993, Hum. Immunol. 3 7, 264-270), which is a non-fluorescent compound that freely diffuses into cells. In live cells, calcein AM is cleaved by intracellular esterases, forming the anionic fluorescent derivative calcein, which cannot diffuse out of live cells. […] The IC50 value (concentration required to inhibit 50% of the calcein AM signal) was calculated for each compound in each cell line (Table 1).
as §1, §2
Compounds to be retested were purchased from manufacturers. Stocks were prepared in DMSO at a concentration of 1 mg/ml in 384-well polypropylene plates with a 16-point, two-fold dilution dose curve of each compound in a column, in duplicates. Column 1-2 and 23-24 were left empty for controls. Daughter retest plates were prepared from stock retest plate by diluting 66.6 fold in DMEM in 384-well deep-deep well plates (4.5 μl transfer into 300 μl). Cells were seeded at a density of 6000 per well in 40 μl, and 20 μl was added from a daughter retest plate. The plates were incubated for two days at 37° C. with 5% CO2.

Where [3] appears, read: BJ-TERT/LT/ST/Ras^V12 cells, 16-point two-fold dilution, two days.
Setting [4] is: BJ-TERT/p53DD/CDK4^R24C/cyclineD1/ST/Ras^V12 cells, 16-point two-fold dilution, two days.

≈ marks a conversion by molar mass, not a printed value. Read-outs that look alike come from different tables or passages of the source. Where only a bound is given, the exact number is not on record here.

For `COc1ccc(C[C@H]2C(=O)N[C@@H](C)C(=O)N(C)[C@@H]3C(=O)N(C)[C@@H](Cc4ccc(O)c(c4)Oc4ccc(cc4)[C@@H]3O)C(=O)N[C@H](C)C(=O)N[C@@H](C)C(=O)N2C)cc1` [Bouvardin], the values for the IC50 in assay [1] and in assay [2] (setting [3]) were 0.156 µg/mL (≈ 0.202 µM) and 0.078 µg/mL (≈ 0.101 µM), respectively. The “Tumor Selectivity” value in assay [2] was 4.
Turning to `CC[C@@]1(O)C(=O)OCc2c1cc1n(c2=O)Cc2cc3ccccc3nc2-1` [Camptothecin], the IC50 in assay [1] (setting [4]) is 1.25 µg/mL (≈ 3.59 µM); in assay [2] (setting [3]) it was 0.0195 µg/mL (≈ 0.056 µM). Besides, the “Tumor Selectivity” value in assay [2] is over 512.
For `COc1cccc2c1C(=O)c1c(O)c3c(c(O)c1C2=O)C[C@@](O)(C(C)=O)C[C@@H]3O[C@H]1C[C@H](N)[C@H](O)[C@H](C)O1` [Daunorubicin], the figures for the IC50 in assay [1] and in assay [2] (setting [3]) were 0.625 µg/mL (≈ 1.18 µM) and 0.312 µg/mL (≈ 0.591 µM), respectively. Moreover, the “Tumor Selectivity” value in assay [2] is 16.
For the compound `COc1cccc2c1C(=O)c1c(O)c3c(c(O)c1C2=O)C[C@@](O)(C(=O)CO)C[C@@H]3O[C@H]1C[C@H](N)[C@H](O)[C@H](C)O1` [Doxorubicin], the IC50 in assay [1] (setting [4]) and in assay [2] (setting [3]) was 1.25 µg/mL (≈ 2.3 µM) in each case. Further, the “Tumor Selectivity” value in assay [2] is recorded as over 8.
Turning to `CS[C@H]1SC[C@H]2C(=O)N(C)[C@@H](C(C)C)C(=O)OC[C@@H](NC(=O)c3cnc4ccccc4n3)C(=O)N[C@@H](C)C(=O)N(C)[C@@H]1C(=O)N(C)[C@@H](C(C)C)C(=O)OC[C@@H](NC(=O)c1cnc3ccccc3n1)C(=O)N[C@@H](C)C(=O)N2C` [Echinomycin], the IC50 in assay [1] was 0.078 µg/mL (≈ 0.0708 µM). In addition, in assay [2], the IC50 was 0.0012 µg/mL (≈ 0.00109 µM) and the “Tumor Selectivity” value is recorded as over 8333.
As to `CCOc1ccccc1-n1c(C(C)N2CCN(C(=O)COc3ccc(Cl)cc3)CC2)nc2ccccc2c1=O` (stereo not drawn) [Erastin], the IC50 was 2.5 µg/mL (≈ 4.57 µM) in assay [1] (setting [4]) and 1.25 µg/mL (≈ 2.28 µM) in assay [2] (setting [3]). Moreover, the “Tumor Selectivity” value in assay [2] is recorded as over 8.
For the compound `O=C1c2c(O)ccc(O)c2C(=O)c2c(NCCNCCO)ccc(NCCNCCO)c21` [Mitoxantrone], the IC50 in assay [1] (setting [4]) is 1.25 µg/mL (≈ 2.81 µM); in assay [2] (setting [3]), 0.312 µg/mL (≈ 0.702 µM). Also, the “Tumor Selectivity” value in assay [2] is 18.
Consider `NC(=O)c1cn([C@@H]2O[C@H](CO)[C@@H](O)[C@H]2O)c2ncnc(N)c12` [Sangivamycin], for which the IC50 in assay [1] and in assay [2] (setting [3]) was 0.078 µg/mL (≈ 0.252 µM) throughout. In addition, the “Tumor Selectivity” value in assay [2] was 4.
